Experimental data from US9221795B2, “Phosphatidylinositol 3-kinase inhibitors” (Gilead Sciences, Inc., priority 2013, dated 2015).

Assays:
PI3Kδ = PI3Kδ (Homo sapiens (Human), UniProt O00329); experiment: Enzymatic activity of PI3K isoforms, TR-FRET assay (PI3Kδ); assay type: biochemical; settings: 2× Km ATP, geometric mean if more than one value
Protocol: Enzymatic activity of the class I PI3K isoforms in the presence of the compounds of Table 1 and Compounds X, Y and Z was measured using a time-resolved fluorescence resonance energy transfer (TR-FRET) assay. The TR-FRET assay was used to monitor formation of the product 3,4,5-inositol triphosphate molecule (PIP3) as it competed with fluorescently labeled PIP3 for binding to the GRP-1 pleckstrin homology domain protein. An increase in […] product results in a decrease in TR-FRET signal as the labeled fluorophore is displaced from the GRP-1 protein binding site.
Class I PI3K isoforms were expressed and purified as heterodimeric recombinant proteins. All assay reagents and buffers for the TR-FRET assay were purchased from Millipore. PI3K isoforms were assayed under initial rate conditions in the presence of 25 mM Hepes (pH 7.4), and 2× Km ATP (75-500 μM), 2 μM PIP2, 5% glycerol, 5 mM MgCl2, 50 mM NaCl, 0.05% (v/v) Chaps, 1 mM dithiothreitol, 1% (v/v) DMSO at the following concentrations for each isoforms: PI3Kα, PI3Kβ, and PI3Kδ between 25 and 50 pM, and PI3Kγ at 2 nM. After an assay reaction time of 30 minutes at 25° C., reactions were terminated with a final concentration of 10 mM EDTA, 10 nM labeled-PIP3, and 35 nM Europium labeled GRP-1 detector protein before reading TR-FRET on an Envision plate reader (Ex: 340 nm; Em: 615/665 nm; […] delay and 500 μs read window).
Data were normalized based on positive ([…] wortmanin) and negative (DMSO) controls. α, β, δ, and γ IC50 values were calculated from the fit of the dose-response curves to a four-parameter equation. All IC50 values represent geometric mean values if more than one value was obtained. IC50 values were reported in units of nM.

basophils = experiment: Basophil activation in human whole blood (Flow2 CAST kit, CD63 flow cytometry); assay type: cell-based; settings: Homo sapiens, human whole blood, basophils activated with anti-FcεRI mAb or fMLP, percent CD63 positive cells
Protocol: Effect on basophil activation was measured in human whole blood using the Flow2 CAST® kit (Buhlmann Laboratories AG, Baselstrasse, Switzerland) following the protocol provided by the manufacturer with minor modifications. Human whole blood was collected into K2-EDTA venipuncture tubes. Whole blood samples were treated with either DMSO (0.3% final) or a serial dilution of compounds in DMSO for 60 minutes at 37° C. Basophils were then activated either with anti-FcεRI mAb or with fMLP. To activate basophils using the anti-FcεRI mAb; 50 μL of whole blood was mixed with 110 μL of stimulation buffer (B-BAT-STB) and 20 μl of anti-FcεRI (B-BAT-STCON). To activate basophils with fMLP; 50 μL of whole blood was mixed with 80 μL of stimulation buffer (B-BAT-STB) and 50 μL of fMLP (B-CCR-FMLP). Stimulation buffer was used as a negative control. 20 μL of the staining reagent (combination of anti-human CD63-FITC and anti-human CCR3-PE mAbs) was then added to each tube. The tubes were mixed gently and incubated for 25 minutes at 37° C. Subsequently, erythrocytes were lysed and fixed by the addition of 2 mL of lysing solution (B-BAT-LYR) for 10 minutes at room temperature. Cells were pelleted by centrifugation at 1200 rpm for 10 minutes at room temperature in a swing-out rotor. Supernatant was aspirated and cell pellet resuspended in 400 μL of wash buffer. Flow cytometric analysis of the basophil activation was performed on a FC500MPL flow cytometer (Beckman Coulter Inc., Fullerton, Calif.). CCR3-staining and side scatter were applied to gate at least 200 basophils that expressed a high density of CCR3. The percent CD63 positive cells within the gated basophil population were determined in different treatment groups and normalized to the vehicle control (0.3% DMSO) with anti-FcεRI mAb of fMLP stimulus as 100%. Final compound concentration was adjusted to correct for dilution effect of added reagents. The EC50 values were calculated from the analysis of the dose-response curves to a four-parameter equation.

Chain of PI3Kδ (O00329 whole entry, the tested form may be a part, canonical isoform): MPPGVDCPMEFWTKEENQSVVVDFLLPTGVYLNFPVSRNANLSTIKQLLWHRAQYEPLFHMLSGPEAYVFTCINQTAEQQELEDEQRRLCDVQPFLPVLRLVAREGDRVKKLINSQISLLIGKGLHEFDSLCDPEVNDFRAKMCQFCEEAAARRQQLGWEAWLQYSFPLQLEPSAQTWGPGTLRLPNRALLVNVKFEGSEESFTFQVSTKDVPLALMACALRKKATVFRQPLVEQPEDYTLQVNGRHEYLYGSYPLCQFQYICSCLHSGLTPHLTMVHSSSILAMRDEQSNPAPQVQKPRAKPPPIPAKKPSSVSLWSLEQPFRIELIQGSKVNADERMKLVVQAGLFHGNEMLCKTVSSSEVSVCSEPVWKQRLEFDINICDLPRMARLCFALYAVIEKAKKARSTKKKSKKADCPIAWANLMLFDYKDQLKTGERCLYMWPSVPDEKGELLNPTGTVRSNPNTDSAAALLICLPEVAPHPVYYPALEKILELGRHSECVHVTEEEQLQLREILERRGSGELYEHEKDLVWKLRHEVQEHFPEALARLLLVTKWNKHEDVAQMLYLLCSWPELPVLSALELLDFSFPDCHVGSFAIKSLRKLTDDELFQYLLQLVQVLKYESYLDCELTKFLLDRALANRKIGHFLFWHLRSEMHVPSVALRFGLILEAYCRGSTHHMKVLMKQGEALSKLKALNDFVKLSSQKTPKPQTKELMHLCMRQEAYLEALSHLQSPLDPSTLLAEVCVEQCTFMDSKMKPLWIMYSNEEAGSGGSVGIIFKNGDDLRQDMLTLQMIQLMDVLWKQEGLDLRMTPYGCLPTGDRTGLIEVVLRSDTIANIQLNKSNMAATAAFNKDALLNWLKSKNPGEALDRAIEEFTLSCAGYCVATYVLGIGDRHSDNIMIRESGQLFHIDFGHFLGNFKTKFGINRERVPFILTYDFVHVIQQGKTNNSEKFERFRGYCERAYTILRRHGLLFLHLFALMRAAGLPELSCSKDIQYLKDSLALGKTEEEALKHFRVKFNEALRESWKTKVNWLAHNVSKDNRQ
Chain of PI3Kδ (P27986 whole entry partner, the tested form may be a part, canonical isoform): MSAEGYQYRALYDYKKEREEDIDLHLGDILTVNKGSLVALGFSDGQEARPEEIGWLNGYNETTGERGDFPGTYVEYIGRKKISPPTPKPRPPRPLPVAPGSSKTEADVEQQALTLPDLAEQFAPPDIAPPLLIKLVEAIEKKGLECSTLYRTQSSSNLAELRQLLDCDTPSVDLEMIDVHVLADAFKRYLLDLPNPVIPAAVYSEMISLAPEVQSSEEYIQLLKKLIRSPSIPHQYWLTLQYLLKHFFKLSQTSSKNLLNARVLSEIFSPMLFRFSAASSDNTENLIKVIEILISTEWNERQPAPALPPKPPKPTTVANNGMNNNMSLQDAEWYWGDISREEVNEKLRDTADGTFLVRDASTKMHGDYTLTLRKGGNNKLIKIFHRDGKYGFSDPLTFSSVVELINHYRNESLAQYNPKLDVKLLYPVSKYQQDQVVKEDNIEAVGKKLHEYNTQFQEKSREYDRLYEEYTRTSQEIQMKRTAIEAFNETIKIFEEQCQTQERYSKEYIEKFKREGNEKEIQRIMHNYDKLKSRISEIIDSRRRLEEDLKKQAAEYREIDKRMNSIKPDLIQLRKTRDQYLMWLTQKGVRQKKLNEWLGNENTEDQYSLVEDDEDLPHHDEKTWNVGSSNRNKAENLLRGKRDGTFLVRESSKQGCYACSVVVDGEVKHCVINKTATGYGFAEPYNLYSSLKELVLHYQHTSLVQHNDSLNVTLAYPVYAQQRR

SMILES | IC50 (PI3Kδ) [nM] | EC50 (basophils; class symbol) [nM] | EC50 (basophils; geometric mean) [nM]
CC[C@H](Nc1nc(N)nc(N)c1C#N)c1nc2cccc(Cl)c2c(=O)n1-c1cncc(F)c1C (atropisomer, axis not shown) [Compound 71, (S)-2,4-diamino-6-((1-(5-chloro-3-(5-fluoro-4-methylpyridin-3-yl)-4-oxo-3,4-dihydroquinazolin-2-yl)propyl)amino)pyrimidine-5-carbonitrile] | 49 | – | –
CC(C)C[C@H](Nc1nc(N)nc(N)c1C#N)c1nc2cccc(Cl)c2c(=O)n1-c1cncc(F)c1 [Compound 57, (S)-2,4-Diamino-6-((1-(5-chloro-3-(5-fluoropyridin-3-yl)-4-oxo-3,4-dihydroquinazolin-2-yl)-3-methylbutyl)amino)pyrimidine-5-carbonitrile] | 14 | – | –
Cc1c(F)cncc1-n1c([C@H](C)Nc2nc(N)nc(N)c2C#N)nc2c(F)ccc(Cl)c2c1=O (atropisomer, axis not shown) [Compound 73, (S)-2,4-diamino-6-((1-(5-chloro-8-fluoro-3-(5-fluoro-4-methylpyridin-3-yl)-4-oxo-3,4-dihydroquinazolin-2-yl)ethyl)amino)pyrimidine-5-carbonitrile] | 59 | – | –
CC[C@H](Nc1nc(N)nc(N)c1C#N)c1nc2c(C#N)cc(F)cc2c(=O)n1-c1cncc(F)c1 [Compound 55, (S)-2-(1-((2,6-Diamino-5-cyanopyrimidin-4-yl)amino)propyl)-6-fluoro-3-(5-fluoropyridin-3-yl)-4-oxo-3,4-dihydroquinazoline-8-carbonitrile] | 60 | – | –
CC[C@@H](Nc1nc(N)nc(N)c1C#N)c1nc2c(F)ccc(Cl)c2c(=O)n1-c1cccnc1 [Compound 111, (R)-2,4-Diamino-6-((1-(5-chloro-8-fluoro-4-oxo-3-(pyridin-3-yl)-3,4-dihydroquinazolin-2-yl)propyl)amino)pyrimidine-5-carbonitrile] | 9 | – | –
C[C@H](Nc1nc(N)nc(N)c1C#N)c1nc2c(C#N)cc(F)cc2c(=O)n1-c1cccnc1 [Compound 54, (S)-2-(1-((2,6-Diamino-5-cyanopyrimidin-4-yl)amino)ethyl)-6-fluoro-4-oxo-3-(pyridin-3-yl)-3,4-dihydroquinazoline-8-carbonitrile] | 10 | – | –
Cc1cncc(-n2c([C@H](C)Nc3nc(N)nc(N)c3C#N)nc3cccc(Cl)c3c2=O)c1C (atropisomer, axis not shown) [Compound 77, (S)-2,4-diamino-6-((1-(5-chloro-3-(4,5-dimethylpyridin-3-yl)-4-oxo-3,4-dihydroquinazolin-2-yl)ethyl)amino)pyrimidine-5-carbonitrile] | 75 | – | –
Cc1c(F)cncc1-n1c([C@@H](Nc2nc(N)nc(N)c2C#N)C2CC2)nc2c(F)ccc(Cl)c2c1=O (atropisomer, axis not shown) [Compound 65, (S)-2,4-Diamino-6-(((5-chloro-8-fluoro-3-(5-fluoro-4-methylpyridin-3-yl)-4-oxo-3,4-dihydroquinazolin-2-yl)(cyclopropyl)methyl)amino)pyrimidine-5-carbonitrile] | 42 | – | –

Further molecules by falling IC50 (PI3Kδ), results first:

IC50 (PI3Kδ) [nM] | EC50 (basophils; class symbol) [nM] | EC50 (basophils; geometric mean) [nM] | SMILES
9 | 1 to 10 | 7 | Cc1ccncc1-n1c([C@H](C)Nc2nc(N)nc(N)c2C#N)nc2cccc(Cl)c2c1=O (atropisomer, axis not shown) [Compound 40, (S)-2,4-diamino-6-(1-(5-chloro-3-(4-methylpyridin-3-yl)-4-oxo-3,4-dihydroquinazolin-2-yl)ethylamino)pyrimidine-5-carbonitrile]
8 | 1 to 10 | 4 | C[C@H](Nc1nc(N)nc(N)c1C#N)c1nc2cccc(Cl)c2c(=O)n1-c1cncc(Cl)c1 [Compound 13, (S)-2,4-diamino-6-(1-(5-chloro-3-(5-chloropyridin-3-yl)-4-oxo-3,4-dihydroquinazolin-2-yl)ethylamino)pyrimidine-5-carbonitrile]
7 | – | – | N#Cc1c(N)nc(N)nc1N[C@@H](c1nc2c(F)ccc(Cl)c2c(=O)n1-c1cccnc1)C1CC1 [Compound 112, (R)-2,4-Diamino-6-(((5-chloro-8-fluoro-4-oxo-3-(pyridin-3-yl)-3,4-dihydroquinazolin-2-yl)(cyclopropyl)methyl)amino)pyrimidine-5-carbonitrile]
5 | 10 to 50 | 22 | N#Cc1c(N)nc(N)nc1N[C@@H](CC1CC1)c1nc2cccc(Cl)c2c(=O)n1-c1cccnc1 [Compound 4, (S)-2,4-diamino-6-(1-(5-chloro-4-oxo-3-(pyridin-3-yl)-3,4-dihydroquinazolin-2-yl)-2-cyclopropylethylamino)pyrimidine-5-carbonitrile]
4 | 1 to 10 | 5 | Cc1cncc(-n2c([C@@H](Nc3nc(N)nc(N)c3C#N)C3CC3)nc3cccc(Cl)c3c2=O)c1 [Compound 17, (S)-2,4-diamino-6-((5-chloro-3-(5-methylpyridin-3-yl)-4-oxo-3,4-dihydroquinazolin-2-yl)(cyclopropyl)methylamino)pyrimidine-5-carbonitrile]
4 | – | – | Cc1c(F)cncc1-n1c([C@@H](C)Nc2nc(N)nc(N)c2C#N)nc2cccc(Cl)c2c1=O (atropisomer, axis not shown) [Compound 115, (R)-2,4-diamino-6-((1-(5-chloro-3-(5-fluoro-4-methylpyridin-3-yl)-4-oxo-3,4-dihydroquinazolin-2-yl)ethyl)amino)pyrimidine-5-carbonitrile]
2 | – | – | C[C@H](Nc1nc(N)nc(N)c1C(N)=O)c1nc2cccc(Cl)c2c(=O)n1-c1cccnc1 [Compound 50, (S)-2,4-Diamino-6-((1-(5-chloro-4-oxo-3-(pyridin-3-yl)-3,4-dihydroquinazolin-2-yl)ethyl)amino)pyrimidine-5-carboxamide]
1 | – | – | Cc1c(F)cncc1-n1c([C@H](C)Nc2nc(N)nc(N)c2C#N)nc2c(F)ccc(Cl)c2c1=O (atropisomer, axis not shown) [Compound 74, (S)-2,4-diamino-6-((1-(5-chloro-8-fluoro-3-(5-fluoro-4-methylpyridin-3-yl)-4-oxo-3,4-dihydroquinazolin-2-yl)ethyl)amino)pyrimidine-5-carbonitrile]
1 | – | – | CC[C@H](Nc1nc(N)nc(N)c1C#N)c1nc2cccc(Cl)c2c(=O)n1-c1cncc(F)c1C (atropisomer, axis not shown) [Compound 72, (S)-2,4-diamino-6-((1-(5-chloro-3-(5-fluoro-4-methylpyridin-3-yl)-4-oxo-3,4-dihydroquinazolin-2-yl)propyl)amino)pyrimidine-5-carbonitrile]
1 | – | – | C[C@H](Nc1nc(N)nc(N)c1C#N)c1nc2c(F)ccc(Br)c2c(=O)n1-c1cncc(F)c1 [Compound 60, (S)-2,4-diamino-6-((1-(5-bromo-8-fluoro-3-(5-fluoropyridin-3-yl)-4-oxo-3,4-dihydroquinazolin-2-yl)ethyl)amino)pyrimidine-5-carbonitrile]
0.8 | – | – | Cc1cncc(-n2c([C@H](C)Nc3nc(N)nc(N)c3C#N)nc3cccc(Cl)c3c2=O)c1C (atropisomer, axis not shown) [Compound 78, (S)-2,4-diamino-6-((1-(5-chloro-3-(4,5-dimethylpyridin-3-yl)-4-oxo-3,4-dihydroquinazolin-2-yl)ethyl)amino)pyrimidine-5-carbonitrile]
